Legend:
Type in all cases: cell-based, human
[1] = tested on: neocortical organoids; conditions: 3 μM cocaine 1 h every other day, days 32-44; measured day 44
Protocol: Endogenous ROS were measured by incubating neocortical organoids at day 44 with 100 μM 2′,7′-dichlorofluorescein diacetate (DCFH-DA) (Sigma-Aldrich) for 30 min with or without cocaine. The organoids were washed and dissolved in 1% Triton X-100 in PBS. Fluorescence for each sample was measured at an excitation wavelength of 485 nm, and an emission wavelength of 530 nm using a fluorescence microplate reader (Techan Genios). Protein concentration for each sample was determined using the BCA assay (Pierce BCA® Protein Assay Kits; Thermo Scientific), according to manufacturer's instructions. The level of endogenous ROS for each sample was determined by dividing the fluorescence units by the concentration of protein in the lysate.
Taking into consideration that cocaine concentrations in the fetal rat neocortex drop rapidly to negligible levels 1 h after cocaine administration (Lee et al, PLoS Med. 5:e117, 2008), and to create a physiologically-meaningful drug treatment schedule in vitro, the neocortical organoids were exposed to a pharmacologically-relevant dose of cocaine, 3 μM (Kindberg et al, Dis. Model Mech. 7:1397-1405, 2014), for 1 h every other day, from days 32-44. […] In the present model, post-mitotic neurons migrated toward the periphery of the NE. […] The percentage of BrdU^+ cells that expressed TUJ1 was increased by cocaine as compared to control (FIG. 5F and FIG. 6B).

[2] = tested on: neocortical organoids; conditions: 3 μM cocaine days 32-44, days 51-52
Protocol: (§1) FIGS. 5A-5I is a series of panels showing neurodevelopmental effects of cocaine mediated by CYP3A5. FIG. 5A is an image showing RT-PCR analysis of expression of CYP3A family genes at different stages of neocortical organoid differentiation. “Neocortical organoids” indicates day 44 of differentiation. FIG. 5B is a graph showing ROS formation in the neocortical organoids in presence or absence of cocaine. Neocortical organoids were treated with 3 μM cocaine for 1 h every other day from day 32 to day 44, and endogenous ROS was measured at day 44. n=6. FIG. 5C is a graph showing effects of CYP3A5 or CYP3A43 knockdown on cocaine-induced ROS generation in H9 (dashed line, in the absence of cocaine). n=6. FIG. 5D is a graph showing proliferation of PAX6^+ NE cells of neocortical organoids in the presence or absence of cocaine in H9. Proliferation was examined at day 45 with 1 h BrdU (10 μM) incorporation. n=5. FIG. 5E is a graph showing effects of CYP3A5 or CYP3A43 knockdown on cocaine-induced inhibition of proliferation of PAX6^+ NE cells in H9 (dashed line, in the absence of cocaine). n=7. FIG. 5F is graph showing neuronal differentiation in neocortical organoids in the presence or absence of cocaine in H9. Neuronal differentiation was analyzed 24 h after 1 h BrdU (10 μM) treatment from day 51 to day 52. […] FIG. 5G is a graph showing effects of CYP3A5 or CYP3A43 knockdown on cocaine-induced premature neuronal differentiation in H9 (dashed line, in the absence of cocaine). n=7, FIG. 5H is a graph showing neural tissue development in the presence or absence of cocaine in H9. TUJ1^+ areas in the neocortical organoids were analyzed at day 66. TUJ1^+ areas expressed as percentages of total organoid area on day 24 are shown. n=6. FIG. 5I is a graph showing effects of CYP3A5 or CYP3A43 knockdown on cocaine-induced inhibition of neural tissue development in H9 (dashed line, in the absence of cocaine). n=6. Data are shown as means±SEM. Unpaired two-tailed Student's t-test for H9 and H14 in FIG. 5B, and for FIGS. 5D, 5F, and 5H. […]

[3] = tested on: PAX6+ NE cells of neocortical organoids; conditions: 3 μM cocaine 1 h every other day, days 32-44; day 45; H9 and H14
Protocol: as §1

[4] = tested on: neocortical organoids; conditions: 3 μM cocaine days 32-44; day 66; H9 and H14
Protocol: Adherent cells in culture were fixed with 4% PFA for 10 min, followed by PBS wash. Neocortical organoids embedded in collagen gel were immersed in 4% PFA for 20 min and cryoprotected in 20% sucrose in PBS for 20 min. Cryostat sections (10 μm) were thaw-mounted onto gelatin-subbed slides. Cells and tissue sections were blocked with 0.2% Triton X-100 in PBS supplemented with 5% BSA and 10% goat serum. Cells were then incubated with primary antibodies in 0.2% Triton X-100 in PBS with 5% BSA and 5% goat serum: rabbit anti-BF1 (1:100; Abcam), rat anti-CD133 (1:100; Millipore), rat anti-CTIP2 (1:50; Abcam), rabbit anti-CUX1 (1:100; Santa Cruz Biotechnology), rabbit anti-EMX1 (1:50; Sigma), mouse anti-gamma-tubulin (1:500; Sigma), rat anti-HOXB4 (1:50; DSHB), mouse anti-Ki67 (1:100; BD Biosciences), rabbit anti-N-cadherin (1:100; Abcam), mouse anti-Nestin (1:50; R&D Systems), mouse anti-NKX2.1 (1:200; Chemicon), mouse anti-PAX6 (1:50; DSHB), rabbit anti-PAX6 (1:300; Covance), rabbit anti-PH3 (1:500; Cell Signaling Technology), mouse anti-Reelin (1:200; Millipore), rabbit anti-TBR1 (1:1000; Abcam), and mouse anti-TUJ1 (1:2,000; Promega). […] TUJ1+ neocortical areas were calculated by normalization of TUJ1+ areas in the neocortical organoids at day 66 (using only sections from the center of each organoid) to organoid size at day 24. […]

[5] = tested on: neocortical neurons generated from hPSCs

COC(=O)[C@H]1[C@@H](OC(=O)c2ccccc2)C[C@@H]2CC[C@H]1N2C [cocaine]
ROS generation in neocortical organoids [1]: ROS accumulation was observed | migration of BrdU-labeled TUJ1 neurons outwards to the periphery of the NE area ([2]; BrdU 1 h pulse, 24 h chase): increased | percentage of BrdU+ cells that expressed TUJ1, compared to control ([2]; H9 and H14): increased | proliferation of PAX6+ NE cells [3]: inhibited | development of the TUJ1+ area [4]: significantly inhibited

NC1=N[C@H](O)[C@H]2[C@H]3O[C@]4(O)O[C@@H]([C@@H](O)[C@@]2(N1)[C@@H]4O)[C@]3(O)CO [tetrodotoxin]
action potentials recorded in current clamp mode [5]: blocked

— patent US10087417B2, “Three-dimensional model of human cortex” (priority 2015, dated 2018)
